# Experimental data as given in patent publication US11497751B2, “Modulators of Rho-associated protein kinase” (Redx Pharma PLC, priority 2018, dated 2022).
# Values joined by “and” are separate entries in the source; they are usually repeats but may differ in a detail not shown here. Equal values may be shown once. Where a name gives a salt, the structure may show the parent alone.
# Target: T1, N-terminal 6His-tagged ROCK2 catalytic domain 11-552 (Homo sapiens, UniProt O75116)
# T1 construct: N-terminal 6His-tagged ROCK2 catalytic domain 11-552; 6His (N); purchased Dundee University, UK; host or cells: baculovirus expression system
# Experiment: ROCK2 binding activity: ROCK2 inhibition, ADP-Glo Kinase Assay
# Type: biochemical
# Settings: 1.25 nM ROCK2, 100 μM long S6 peptide, 20 μM ATP; 1 hour pre-incubation; read-out: ADP-Glo kinase activity assay ROCK2 Category
# Procedure: Assay for ROCK2 inhibition was performed using the protein construct N-terminal 6His-tagged ROCK2 catalytic domain 11-552 (Dundee University, UK). Protein was purified from a baculovirus expression system. Long S6 peptide ([…]) was used as substrate. Kinase reactions were carried out in 15 μl volume in a 96-well plate (black, half area) using 1.25 nM constitutively active ROCK2 kinase, 100 μM long S6 peptide, 20 μM ATP and test compound in DMSO (or DMSO only for controls). The final concentration of DMSO was 1%. Assay buffer was 50 mM HEPES pH 7.5 supplemented with 0.2 mM EDTA, 10 mM magnesium acetate, 0.01% Tween-20, 1 mM DTT and 0.01% BSA. Test compounds were pre-incubated with ROCK2 kinase for 1 hour before addition of ATP and long S6 peptide. After incubation for a further 1 hour, the amount of ADP produced was measured using ADP-Glo Kinase Assay (Promega) as per manufacturer's instructions. The luminescence was measured on a PHERAstar FS (BMG Labtech). The concentration of test compound required to inhibit ADP production by 50% (the IC50) was calculated using a four-parameter logistic function with software by Dotmatics.
# The category “+” refers to compounds with a ROCK2 IC50 value of >10 μM. The category “++” refers to compounds with a ROCK2 IC50 value of 10 to 3 μM. The category “+++” refers to compounds with a ROCK2 IC50 value of 3 to 0.3 μM. The category “++++” refers to compounds with a ROCK2 IC50 value of <0.3 μM.
# T1 sequence (O75116 11-552): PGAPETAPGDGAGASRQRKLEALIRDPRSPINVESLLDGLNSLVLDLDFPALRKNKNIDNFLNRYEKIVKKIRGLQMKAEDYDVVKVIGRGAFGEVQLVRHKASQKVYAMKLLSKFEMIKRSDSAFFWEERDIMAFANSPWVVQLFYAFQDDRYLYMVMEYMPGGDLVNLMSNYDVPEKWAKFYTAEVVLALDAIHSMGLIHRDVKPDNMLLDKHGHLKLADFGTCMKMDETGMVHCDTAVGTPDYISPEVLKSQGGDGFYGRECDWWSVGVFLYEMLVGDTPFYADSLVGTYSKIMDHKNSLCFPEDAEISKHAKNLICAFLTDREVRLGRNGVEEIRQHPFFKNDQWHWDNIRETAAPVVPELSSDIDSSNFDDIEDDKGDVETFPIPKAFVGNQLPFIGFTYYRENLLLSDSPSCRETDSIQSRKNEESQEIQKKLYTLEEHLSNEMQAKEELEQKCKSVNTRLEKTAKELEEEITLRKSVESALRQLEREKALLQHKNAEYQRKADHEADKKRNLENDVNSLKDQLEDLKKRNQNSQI
row,Compound,IC50
1,O=C(COc1ccc(-c2nnc(Nc3ccc4[nH]ncc4c3)[nH]2)cc1)NC1COC1 [Example 164],< 300 nM
2,COc1cc(-c2nnc(Nc3ccc4[nH]ncc4c3)[nH]2)ccc1OCC(=O)NC1CCC1 [Example 165],< 300 nM
3,Cn1nc(-c2ccc(C(=O)NCC(F)(F)F)cc2)nc1Nc1ccc2[nH]ncc2c1Cl [Example 171],< 300 nM
4,COc1cc(-c2nc(Nc3ccc4[nH]ncc4c3Cl)n(C)n2)ccc1C(=O)N1CCOCC1 [Example 172],300 to 3000 nM
5,COc1cc(-c2nc(Nc3ccc4[nH]ncc4c3Cl)n(C)n2)ccc1C(=O)N1CC(CO)(CO)C1 [Example 173],3000 to 10000 nM
6,Cn1nc(-c2ccc(C(=O)NC3CCC3)cc2)nc1Nc1ccc2[nH]ncc2c1Cl [Example 176],< 300 nM
7,Cn1nc(-c2ccc(C(=O)NC3CC3)cc2)nc1Nc1ccc2[nH]ncc2c1Cl [Example 177],< 300 nM
8,COc1cc(-c2nc(Nc3ccc4[nH]ncc4c3Cl)n(C(C)C)n2)ccc1C(=O)NCC(F)(F)F [Example 192],< 300 nM
9,COc1cc(-c2nc(Nc3ccc4[nH]ncc4c3Cl)n(C)n2)ccc1OCC(=O)NC(C)(C)CO [Example 205],< 300 nM
10,COc1cc(-c2nc(Nc3ccc4[nH]ncc4c3Cl)n(C)n2)ccc1OCC(=O)NCC(C)(C)O [Example 207],< 300 nM
11,COc1cc(-c2nc(Nc3ccc4[nH]ncc4c3Cl)n(C)n2)ccc1OCC(=O)NCC1(O)CC1 [Example 209],< 300 nM
12,COc1cc(-c2nc(Nc3ccc4[nH]ncc4c3Cl)n(C)n2)ccc1OCC(=O)NC1(CO)CC1 [Example 211],< 300 nM
13,COc1cc(-c2nc(Nc3ccc4[nH]ncc4c3Cl)n(C)n2)ccc1OCC(=O)NC1CCC(O)CC1 (stereo not shown) [Example 212],< 300 nM
14,COc1cc(-c2nc(Nc3ccc4[nH]ncc4c3Cl)n(C)n2)ccc1OCC(=O)N[C@@H]1CCCC[C@H]1O [Example 213],< 300 nM
15,COc1cc(-c2nc(Nc3ccc4[nH]ncc4c3Cl)n(C)n2)ccc1OCC(=O)NC1CC(O)C1 (stereo not shown) [Example 214],< 300 nM
16,COc1cc(-c2nc(Nc3ccc4[nH]ncc4c3Cl)n(C)n2)ccc1OCC(=O)NC(C)c1ccccn1 (stereo not shown) [Example 215],< 300 nM
17,COc1cc(-c2nc(Nc3ccc4[nH]ncc4c3Cl)n(C)n2)ccc1OCC(=O)NC(C)c1cccnc1 (stereo not shown) [Example 216],< 300 nM
18,COc1cc(-c2nc(Nc3ccc4[nH]ncc4c3Cl)n(C)n2)ccc1OCC(=O)NC1CCCC1 [Example 217],< 300 nM
19,"CS(=O)(=O)NCCOc1ccc(-c2nnc(Nc3ccc4[nH]ncc4c3)[nH]2)cc1 [Example 220, N-[2-[4-[5-(1H-Indazol-5-ylamino)-4H-1,2,4-triazol-3-yl]phenoxy]ethyl]methanesulfonamide]",300 to 3000 nM
20,CC(=O)NCCOc1ccc(-c2nnc(Nc3ccc4[nH]ncc4c3)[nH]2)cc1 [Example 221],300 to 3000 nM
21,c1ccc(NCCOc2ccc(-c3nnc(Nc4ccc5[nH]ncc5c4)[nH]3)cc2)nc1 [Example 222],< 300 nM
22,CC(C)CC(=O)NCCOc1ccc(-c2nnc(Nc3ccc4[nH]ncc4c3)[nH]2)cc1 [Example 223],3000 to 10000 nM
23,"CC(C)NC(=O)NCCOc1ccc(-c2nnc(Nc3ccc4[nH]ncc4c3)[nH]2)cc1 [Example 224, 1-[2-[4-[5-(1H-indazol-5-ylamino)-4H-1,2,4-triazol-3-yl]phenoxy]ethyl]-3-isopropyl-urea dihydrochloride]",< 300 nM
24,O=C(NCCOc1ccc(-c2nnc(Nc3ccc4[nH]ncc4c3)[nH]2)cc1)N1CCCC1 [Example 225],300 to 3000 nM
25,"CC(C)NS(=O)(=O)COc1ccc(-c2n[nH]c(Nc3ccc4[nH]ncc4c3)n2)cc1 [Example 226, 1-[4-[5-(1H-indazol-5-ylamino)-4H-1,2,4-triazol-3-yl]phenoxy]-N-isopropyl-methanesulfonamide]",< 300 nM
26,"COc1cc(-c2nc(Nc3ccc4[nH]ncc4c3)n[nH]2)ccc1OCC(=O)NC1CN(C(C)=O)C1 [Example 227, N-(1-acetylazetidin-3-yl)-2-[4-[5-(1H-indazol-5-ylamino)-4H-1,2,4-triazol-3-yl]-2-methoxy-phenoxy]acetamide]",300 to 3000 nM
27,"NC1(COc2ccc(-c3nnc(Nc4ccc5[nH]ncc5c4)[nH]3)cc2)COC1 [Example 228, N-[5-[4-[(3-aminooxetan-3-yl)methoxy]phenyl]-4H-1,2,4-triazol-3-yl]-1H-indazol-5-amine]",300 to 3000 nM

# Results, then the compound that gave them:
row,IC50,Compound
1,< 300 nM,"CC(C)NC(=O)c1ccc(-c2nc(Nc3ccc4[nH]ncc4c3Cl)n(C)n2)cc1 [Example 166, 4-[5-[(4-chloro-1H-indazol-5-yl)amino]-1-methyl-1,2,4-triazol-3-yl]-N-isopropyl-benzamide]"
2,< 300 nM,COc1cc(-c2nc(Nc3ccc4[nH]ncc4c3)n(C)n2)ccc1OCC(=O)NC(C)C [Example 167]
3,< 300 nM,CCNC(=O)c1ccc(-c2nc(Nc3ccc4[nH]ncc4c3)n(C)n2)cc1OC [Example 168]
4,< 300 nM,COc1cc(-c2nc(Nc3ccc4[nH]ncc4c3)n(C)n2)ccc1C(=O)NC(C)C [Example 169]
5,< 300 nM,COc1cc(-c2nc(Nc3ccc4[nH]ncc4c3)n(C)n2)ccc1C(=O)NC(C)(C)C [Example 170]
6,< 300 nM,CNC(=O)c1ccc(-c2nc(Nc3ccc4[nH]ncc4c3Cl)n(C)n2)cc1OC [Example 174]
7,< 300 nM,COc1cc(-c2nc(Nc3ccc4[nH]ncc4c3Cl)n(C)n2)ccc1C(=O)NC(C)(C)C [Example 175]
8,< 300 nM,COc1cc(-c2nc(Nc3ccc4[nH]ncc4c3C)n(C)n2)ccc1C(=O)NCC(F)(F)F [Example 178]
9,< 300 nM,COc1cc(-c2nc(Nc3ccc4[nH]ncc4c3C)n(C)n2)ccc1C(=O)NC(C)C [Example 179]
10,< 300 nM,CCNC(=O)c1ccc(-c2nc(Nc3ccc4[nH]ncc4c3C)n(C)n2)cc1OC [Example 180]
11,< 300 nM,COc1cc(-c2nc(Nc3ccc4[nH]ncc4c3C)n(C)n2)ccc1C(=O)NC(C)(C)C [Example 181]
12,< 300 nM,COc1cc(-c2nc(Nc3ccc4[nH]ncc4c3C)n(C)n2)ccc1C(=O)NC1CC1 [Example 182]
13,< 300 nM,COc1cc(-c2nc(Nc3ccc4[nH]ncc4c3F)n(C)n2)ccc1C(=O)NC(C)C [Example 183]
14,300 to 3000 nM and < 300 nM,COc1cc(-c2nc(Nc3ccc4[nH]ncc4c3F)n(C)n2)ccc1C(=O)NCC(F)(F)F [Example 184]
15,< 300 nM,COc1cc(-c2nc(Nc3ccc4[nH]ncc4c3Cl)n(C(C)C)n2)ccc1C(=O)NC(C)C [Example 191]
16,< 300 nM,"COc1cc(-c2nc(Nc3ccc4[nH]ncc4c3Cl)n(C)n2)ccc1C(=O)NC(C)C [Example 193, 4-[5-[(4-chloro-1H-indazol-5-yl)amino]-1-methyl-1,2,4-triazol-3-yl]-N-isopropyl-2-methoxy-benzamide]"

row,IC50,Compound
1,< 300 nM,COc1cc(-c2nc(Nc3ccc4[nH]ncc4c3Cl)n(C)n2)ccc1C(=O)NC1CC1 [Example 195]
2,< 300 nM,COc1cc(-c2nc(Nc3ccc4[nH]ncc4c3Cl)n(C)n2)ccc1C(=O)NC1CCOCC1 [Example 196]
3,300 to 3000 nM,COc1cc(-c2nc(Nc3ccc4[nH]ncc4c3Cl)n(C)n2)ccc1C(=O)N1CCCC1 [Example 197]
4,< 300 nM,COc1cc(-c2nc(Nc3ccc4[nH]ncc4c3Cl)n(C)n2)ccc1C(=O)NC1(CO)CC1 [Example 198]
5,300 to 3000 nM,COc1cc(-c2nc(Nc3ccc4[nH]ncc4c3Cl)n(C)n2)ccc1C(=O)NC#N [Example 199]
6,< 300 nM,COc1cc(-c2nc(Nc3ccc4[nH]ncc4c3Cl)n(C)n2)ccc1C(=O)NC1CCS(=O)(=O)C1 (stereo not shown) [Example 200]
7,< 300 nM,COc1cc(-c2nc(Nc3ccc4[nH]ncc4c3Cl)n(C)n2)ccc1C(=O)NCC(F)(F)F [Example 201]
8,< 300 nM,COc1cc(-c2nc(Nc3ccc4[nH]ncc4c3Cl)n(C)n2)ccc1C(=O)NC1CCN(C)C1 (stereo not shown) [Example 202]
9,< 300 nM,COc1cc(-c2nc(Nc3ccc4[nH]ncc4c3Cl)n(C)n2)ccc1C(N)=O [Example 203]
10,< 300 nM,"COc1cc(-c2nc(Nc3ccc4[nH]ncc4c3Cl)n(C)n2)ccc1OCC(=O)NC(C)(C)C [Example 204, N-tert-butyl-2-[4-[5-[(4-chloro-1H-indazol-5-yl)amino]-1-methyl-1,2,4-triazol-3-yl]-2-methoxy-phenoxy]acetamide]"
11,< 300 nM,COc1cc(-c2nc(Nc3ccc4[nH]ncc4c3Cl)n(C)n2)ccc1OCC(=O)NCC(C)O (stereo not shown) [Example 206]
12,< 300 nM,COc1cc(-c2nc(Nc3ccc4[nH]ncc4c3Cl)n(C)n2)ccc1OCC(=O)NC(C)CO (stereo not shown) [Example 208]
13,< 300 nM,COc1cc(-c2nc(Nc3ccc4[nH]ncc4c3Cl)n(C)n2)ccc1OCC(=O)NC(C)C(F)(F)F (stereo not shown) [Example 210]
14,< 300 nM,COc1cc(-c2nc(Nc3ccc4[nH]ncc4c3Cl)n(C)n2)ccc1OCC(=O)N[C@@H](C)C(F)(F)F [Example 218]
15,< 300 nM,COc1cc(-c2nc(Nc3ccc4[nH]ncc4c3Cl)n(C)n2)ccc1OCC(=O)N[C@H](C)C(F)(F)F [Example 219]
